# Reference: patent US9011862B2, “Inhibitors of the nitration of amyloid β peptides and their uses in the diagnosis and treatment of Alzheimer's disease” (Rheinische Friedrich-Wilhelms-Universität Bonn, priority 2009, dated 2015)
# “Also recorded” adds a separate entry of the source.
# Experiments:
# Aβ1-42 [1] = assay: Aβ aggregation assay (SDS-PAGE, immunoblot 6E10); assay type: biochemical, human; conditions: compared with Aβ1-42
# Protocol: (§1) (6B) Same assay as in A but samples were incubated for different time periods with PN.
# (§2) Peptides were separated by 4-12% Nupage and blotted transferred nitrocelluse and incubated with antibody 6E10 (Signet). The remaining sample was stored at −20° C. and analyzed by mass spectrometry. In case of the time course experiment the reaction was stopped using Nupage sample buffer followed by incubation at 70 C for 5 min.
# (§3) Aβ1-42, Aβ1-42 Y10F (Peptide Specialty Laboratories) were solubilized as previously described. For nitration samples were incubated with 0.25-0.5 mM peroxynitrate in water while vortexing. Aggregation was started by diluting samples to 25 μM using 50 mM Tris-HCl pH 7. Samples were separated by 4-12% NuPAGE and aggregates were detected using anti-body 6E10 (Signet) and 3-NTyr10-Aβ. Aggregation was expressed as a ratio between the signal above 30 kDa and the Aβ monomer, normalized to the 0 time point of Aβ1-42. Thioflavin T fluorescence assays were performed as described previously. Fluorescence was read at 446 nm (excitation) and 482 nm (emission) using a fluorescence spectrophotometer (Varian).
# Aβ1-42 [2] = assay: Thioflavin T aggregation assay; assay type: biochemical, human; conditions: peptide treated with peroxynitrite, compared with Aβ1-42
# Protocol: as §3
# Aβ1-42 [3] = target: T1, Aβ1-42 (Homo sapiens, UniProt P05067); assay: Aβ aggregation assay (SDS-PAGE, immunoblot 6E10); assay type: biochemical; conditions: for high molecular weight (SDS-resistant) aggregates of synthetic Aβ1-42 after incubation with the agent: 5 mM Sin-1 or 0.25 mM peroxynitrite, 18 h
# T1 construct: Amyloid β 1-42 or Amyloid β 1-42 Y10A (both from rPeptide, Bogart, Ga., USA); host or cells: synthetic peptide
# T1 sequence (P05067 672-713): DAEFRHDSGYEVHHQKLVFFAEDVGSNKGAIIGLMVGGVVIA
# Protocol: as §1, §2, §3
# Aβ1-42 [4] = target: T1, Aβ1-42; assay: In vitro Aβ1-42 aggregation with added nitrated Aβ1-42; assay type: biochemical; conditions: 25 μM Aβ1-42, 5 h, antibody IC16
# recombinant IDE [5] = target: T2, recombinant IDE (Homo sapiens, UniProt P14735); assay: Fluorogenic substrate enzymatic assay, IDE; assay type: biochemical; conditions: 1 mM Sin-1, 30 min preincubation
# T2 construct: purchased R&D
# T2 sequence (P14735 1-1019): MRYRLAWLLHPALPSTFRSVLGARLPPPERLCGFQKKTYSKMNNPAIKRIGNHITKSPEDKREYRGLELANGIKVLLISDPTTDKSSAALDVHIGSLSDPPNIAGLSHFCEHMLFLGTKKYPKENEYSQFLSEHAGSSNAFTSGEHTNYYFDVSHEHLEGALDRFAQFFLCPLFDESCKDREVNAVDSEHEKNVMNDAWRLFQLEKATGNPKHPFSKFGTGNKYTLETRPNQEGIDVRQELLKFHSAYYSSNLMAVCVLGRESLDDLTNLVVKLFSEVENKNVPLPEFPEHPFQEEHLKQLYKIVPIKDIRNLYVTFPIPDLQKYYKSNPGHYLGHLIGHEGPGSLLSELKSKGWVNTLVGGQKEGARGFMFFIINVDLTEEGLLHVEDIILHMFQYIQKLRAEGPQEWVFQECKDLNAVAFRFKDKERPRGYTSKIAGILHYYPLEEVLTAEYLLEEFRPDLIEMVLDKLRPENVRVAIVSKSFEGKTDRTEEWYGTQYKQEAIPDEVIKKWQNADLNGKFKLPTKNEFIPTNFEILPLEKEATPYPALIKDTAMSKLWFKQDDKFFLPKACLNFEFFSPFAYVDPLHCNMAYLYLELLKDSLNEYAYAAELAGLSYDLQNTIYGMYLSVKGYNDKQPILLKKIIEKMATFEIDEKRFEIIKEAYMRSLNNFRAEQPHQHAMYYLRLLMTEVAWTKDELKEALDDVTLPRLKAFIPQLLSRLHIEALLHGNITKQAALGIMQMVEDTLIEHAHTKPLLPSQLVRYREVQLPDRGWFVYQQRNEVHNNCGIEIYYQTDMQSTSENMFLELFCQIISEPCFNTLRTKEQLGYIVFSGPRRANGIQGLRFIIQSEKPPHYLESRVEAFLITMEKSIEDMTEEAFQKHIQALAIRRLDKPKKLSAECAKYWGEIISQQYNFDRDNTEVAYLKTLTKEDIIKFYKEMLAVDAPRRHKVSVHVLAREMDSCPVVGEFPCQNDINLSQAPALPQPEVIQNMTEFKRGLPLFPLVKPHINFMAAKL
# Protocol: (§4) Afterwards the substrate was added to a final concentration of 10 μM. The hydrolysis of substrate V was measured based on the increase of fluorescence (exitation 320 nm/emission 405 nm) using a Spectrafluor Plus (Tecan, Austria) plate reader for a time period of up to 60 min in 1 min intervals at 37 C. Determination of IDE activity in mouse brain was performed using the fluorogenic peptide substrate 2-aminobenzoyl-[…]-ethylenediamine-2,4-dinitrophenyl (Bachem, Switzerland)^21. For that mice brains were homogenized in PBS containing 1 mM AEBSF, extracted with 1% Tx-100 and centrifuged at 100000×g for 30 min. 10 μg of supernatants were incubated with 25 μM phosphoramidon to inhibit endogenous neprilysin activity. The fluorogenic substrate was added to a final concentration of 20 μM and the resulting fluorescence signal was measured (excitation 320 nm/emission 413 nm) every 3 min for up to 2 h at 37° C. using a infinite 200 plate reader (Tecan, Austria). Evaluation was done within the linear range of the reaction.
# recombinant neprilysin = target: T3, recombinant neprilysin (Homo sapiens, UniProt P08473); assay: Fluorogenic substrate enzymatic assay, neprilysin; assay type: biochemical; conditions: preincubation with different concentrations of Sin-1
# T3 construct: purchased R&D
# T3 sequence (P08473 whole entry, species assumed): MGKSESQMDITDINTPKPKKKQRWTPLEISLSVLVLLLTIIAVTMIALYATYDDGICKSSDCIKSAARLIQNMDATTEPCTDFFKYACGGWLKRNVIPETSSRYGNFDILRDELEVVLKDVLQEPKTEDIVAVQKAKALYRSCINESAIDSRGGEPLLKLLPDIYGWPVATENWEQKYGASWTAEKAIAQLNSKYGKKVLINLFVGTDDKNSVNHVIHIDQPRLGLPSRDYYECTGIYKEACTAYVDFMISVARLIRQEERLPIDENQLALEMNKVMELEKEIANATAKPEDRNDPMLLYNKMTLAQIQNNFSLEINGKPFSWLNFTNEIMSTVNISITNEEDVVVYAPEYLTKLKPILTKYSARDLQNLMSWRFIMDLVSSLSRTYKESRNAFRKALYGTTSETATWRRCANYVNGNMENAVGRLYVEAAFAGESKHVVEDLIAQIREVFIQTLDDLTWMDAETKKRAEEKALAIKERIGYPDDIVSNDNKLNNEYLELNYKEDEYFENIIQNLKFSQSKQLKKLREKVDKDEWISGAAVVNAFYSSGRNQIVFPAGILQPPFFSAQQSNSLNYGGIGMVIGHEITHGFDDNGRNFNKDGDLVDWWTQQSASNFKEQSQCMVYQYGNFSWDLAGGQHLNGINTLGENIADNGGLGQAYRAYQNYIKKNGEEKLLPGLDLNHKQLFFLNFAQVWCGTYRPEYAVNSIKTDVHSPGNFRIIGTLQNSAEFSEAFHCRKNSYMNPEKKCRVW
# Protocol: as §4
# recombinant IDE [6] = target: T2, recombinant IDE; assay: Immunoblot of IDE nitration after Sin-1 incubation; assay type: biochemical; conditions: Sin-1 incubated with purified recombinant IDE
# recombinant IDE [7] = target: T2, recombinant IDE; assay: Aβ degradation assay; assay type: biochemical; conditions: IDE preincubated with increasing concentration of Sin-1, then Aβ1-42 for 2 h
# From the text: Samples were separated by 4-12% NuPAGE and immunoblotted using antibodies PC720 against IDE and 6E10 against Aβ (5E) RIPA fractions of 12 month wild type, APP/PS1 and APP/PS1 iNOS (−/−) animals were monitored for their ability to cleave a fluorgenic peptide substrate in the presence of the neprilysin inhibitor phosphoramidon (n=4+/−SEM, one way anova followed by Tukey post hoc test, […], *p<0.05)
# primary microglial cells = assay: Microglial phagocytosis of FAM-labeled Aβ1-42; assay type: cell-based, mouse; conditions: 500 nM FAM-Aβ1-42
# Protocol: (4A) Analysis of phagocytosis of primary microglia cells from wild type (wt) and iNOS deficient (iNOS (−/−)) mice exposed to 500 nM fibrillar FAM labeled Aβ1-42 peptide for up to 6 h.
# Primary microglial cell cultures were prepared as previously described. Briefly, mixed glial cultures were prepared from newborn mice and cultured in DMEM supplemented with 10% FCS and 100 U ml^−1 penicillin/streptomycin. After 10-14 days of primary cultivation, microglial cells were harvested by shake off.
# Microglial phagocytosis of FAM-labeled Aβ1-42 (FAM-Aβ) (Anaspec, San Diego, Calif.) was measured by plate based assay. Cells were plated at 50000 cells per well. After 1 h cells Aβ was added to a final concentration of 500 nM and incubated. Finally, the Aβ-containing medium was removed and extracellular Aβ was quenched with 100 μl 0.2% trypan blue in PBS pH 4.4 for 1 min. After aspiration fluorescence was measured at 485 nm excitation/535 nm emission using a Spectrafluor Plus reader (Tecan, Austria). To normalize for cell numbers 100 μl 50 μg/ml H33342 in PBS was added, incubated for 30 min and the fluorescence measured at 360 nm excitation/465 nm emission.
# APP/PS1 mice [8] = assay: Eight arm radial maze test; assay type: in vivo, mouse
# APP/PS1 mice [9] = assay: Brain extract Aβ immunoblot and Aβ1-40/Aβ1-42 ELISA; assay type: in vivo, mouse
# APP/PS1 mice [10] = assay: Hippocampal LTP recording on brain slices of treated mice; assay type: in vivo, mouse
# From the text: (n=5+/−SEM) Right panel: Evaluation of the early (slope 1; […]; […]) of the amplitude of the mean fEPSP (n=5+/−SEM of ten minutes recordings, one-way ANOVA, Newman-Keuls post test, *p<0.05; **p<0.01; ***p<0.001) (2B) Determination of the slope of the mean fEPSP as in A. Right panel: Evaluation of the amplitude of the mean fEPSP (2C) Immunblot of brain homogenates and synaptosomal fractions in wild type and APP/PS1 animals at 12 month of age using an anti-S-nitrocystein specific antibody. (2D) Coomassie stain of anti-S-nitrocystein antibody precipitated synaptosomal fractions from wild type, APP/PS1, APP/PS1 iNOS (−/−) and APP/PS1 L-NIL mice separated by SDS-PAGE (2E) Protein sequence of Hsp75/mortalin. […]
# Physiological recordings were performed on brain slices from 3 month old male and female mice, obtained after anesthetization with isoflurane and decapitation. […] Basal synaptic transmission (BST) was assessed by plotting the current (mA) against the peak amplitudes of fEPSP to generate input-output relations. Paired pulse facilitation (PPF) were recorded by applying interstimulus intervals of 30, 50, 75 and 100 ms. For long term potentiation (LTP) experiments a 15 min baseline were recorded with a interpulse interval of one minute at an intensity that evoked a response approximately 30% of maximum fEPSP. […]
# [11] = APP/PS1 mice at 3 month of age, L-NIL orally in the water from 2-3 month
compound,measurement,setting,value
Aβ42Y10F: Aβ1-42 peptide with a tyrosine to phenylalanine mutation at position 10,high molecular weight aggregates of the mutated peptide after incubation with peroxynitrite or Sin-1,Aβ1-42 [1],reduced aggregation to the level of untreated Aβ1-42
same,formation rate of β-sheet amyloid fibril structures (thioflavin T),Aβ1-42 [2],prevented
O=NOO [peroxynitrite],high molecular weight (SDS-resistant) aggregates of synthetic Aβ1-42 after incubation with the agent,Aβ1-42 [3],increased generation
same,high molecular weight (SDS-resistant) aggregates of synthetic Aβ1-42 after incubation with the agent,Aβ1-42 [3]; listed as peroxynitrit,strong induction
same,increase of high molecular aggregates over time,Aβ1-42 [3]; within 24 h after peroxynitrite treatment,x-fold increase
nitrated Aβ1-42: synthetic Aβ1-42 nitrated at tyrosine 10 by peroxynitrite treatment,formation rate of β-sheet amyloid fibril structures (thioflavin T),Aβ1-42 [2],increased formation rate
same,formation of Aβ oligomers on addition of small amounts of nitrated Aβ1-42 species,Aβ1-42 [4],increased formation
"N=c1c[n+](N2CCOCC2)[n-]o1 [Sin-1, 3-morpholino-sydnonimine]",IDE activity,recombinant IDE [5],almost complete inhibition
same,activity of neprilysin,recombinant neprilysin,could not detect any impact
same,nitration of IDE (nitrotyrosine immunoblot),recombinant IDE [6],modifications of IDE detectable with an nitrotyrosine specific antibody
same,degradation of Aβ1-42 by IDE,recombinant IDE [7],decreased degradation
same,high molecular weight (SDS-resistant) aggregates of synthetic Aβ1-42 after incubation with the agent,Aβ1-42 [3],strong induction; also recorded: increased generation
CC(=O)N[C@@H](C(=O)O)C(C)(C)SN=O (racemic) [SNAP],Aβ1-42 phagocytosis,primary microglial cells; SNAP 100 μM,did not expose differences
"CC(=N)NCCCC[C@H](N)C(=O)O [L-NIL, L-N6-(1-iminoethyl)-lysine]",working memory errors,APP/PS1 mice [8]; APP/PS1 mice at 3 and 12 months of age (summary statement),significant reduction
same,reference memory errors,APP/PS1 mice [8]; [11],protected
same,working memory errors,APP/PS1 mice [8]; [11],to some extent
same,reference memory errors,"APP/PS1 mice [8]; APP/PS1 mice at 12 month of age, L-NIL from 6-12 month (post plaque, therapeutic)",reversion of APP/PS1 phenotype
same,working and reference memory errors,"APP/PS1 mice [8]; APP/PS1 mice treated with L-NIL, age not stated (summary statement)",reduction
same,levels of insoluble and soluble Aβ40 and Aβ42 by ELISA,APP/PS1 mice [9]; 5 month old APP/PS1 mice preventively treated with L-NIL from 2-3 month,unable to detect any changes
same,insoluble Aβ by immunoblot and insoluble Aβ 1-40 and Aβ 1-42 by ELISA,"APP/PS1 mice [9]; 12 month old APP/PS1 mice, L-NIL from 6-12 month",strong reduction
same,LTP,APP/PS1 mice [10]; APP/PS1 mice at 3 months of age (summary statement),improvement
same,APP/PS1 induced reduction (suppression) of early and late phase hippocampal LTP,"APP/PS1 mice [10]; hippocampal slices of 3 month old mice, L-NIL from 2-3 month, 10 and after induction",completely prevented; also recorded: not existent
same,Aβ1-42 phagocytosis,primary microglial cells; L-NIL 10 μM,did not expose differences
"Aβ42Y10A: modified human Aβ1-42, tyrosine at position 10 replaced by an alanine (SEQ ID NO. 2)",high molecular weight aggregates of the mutated peptide after incubation with peroxynitrite or Sin-1,Aβ1-42 [1],reduced aggregation to the level of untreated Aβ1-42
